In patent US8623429B2, “Stabilized anthocyanin compositions” (Omnica GmbH, priority 2007, dated 2014):

What was measured:
Format in all cases: physicochemical
[1] = Example 1: stability of bilberry extract anthocyanosides, 4 hours at 37° C., pH 7.0, with/without DHLA or GSH (HPLC)
[2] = Example 2: degradation over time of selected bilberry anthocyanosides at 37° C., pH 7.0, with/without GSH (HPLC); conditions: pH 7.0, 37° C.; for %-residual anthocyanosides (% left): 4.30 hours
Procedure: Sample a) 60 mg bilberry extract [37% anthocyanosides] (0.048 mmol expressed as cyanidin-3-O-glucoside) were added to a 100 ml, filled to volume with sodium phosphate buffer (5% [w/w], pH=7.0) and stirred until dissolution was complete. A 1 ml sample was immediately taken and acidified with formic acid to pH=1.0 and analyzed by HPLC for the content of anthocyanosides. The remaining solution was kept at 37° C. (water bath) with stirring and additional 1 ml samples (Blank Samples), representing unprotected degradation, were sampled every 15 minutes. The samples were analyzed for selected anthocyanosides by HPLC.
Sample b) 20 mg reduced L-glutathione (0.065 mmol) were added to a 100 ml flask with 60 ml sodium phosphate buffer (5% [w/w], pH=7.0) and stirred until dissolution was complete. 60 mg bilberry extract [37% anthocyanosides] (0.048 mmol expressed as cyanidin-3-O-glucoside) were added and the flask was filled to volume with sodium phosphate buffer (5% [w/w], pH=7.0) and kept at 37° C. (water bath) with stirring. Every 15 minutes, 1 ml samples were taken and analyzed for selected anthocyanosides by HPLC.
(§1) Samples were prepared as outlined below in HPLC Analytical Method. Test stability samples were immediately acidified (to block degradation) and injected undiluted following the detailed description provided below.
HPLC Analytical Method (Materials, Instruments and Methods): […]

[3] = Example 9: stability of bilberry extract anthocyanosides, 4 hours at 37° C., pH 7.0, with/without L-cysteine
Procedure: Sample a) 60 mg bilberry extract [37% anthocyanosides] (0.048 mmol anthocyanosides expressed as cyanidin-3-O-glucoside) were added to a 100 ml flask with 60 ml sodium phosphate buffer (5% [w/w], pH=7.0), and stirred until dissolution was complete. A 1 ml sample was taken immediately and acidified with formic acid to pH=1.0 and analyzed by HPLC for the content of anthocyanosides (Fresh Sample). The remaining solution was kept for 4 hours at 37° C. (water bath) with stirring. Thereafter another sample (Blank sample), representing unprotected degradation, was taken and acidified.
Sample b) 20 mg L-cysteine […] were added to a 100 ml flask with 60 ml sodium phosphate buffer (5% [w/w], pH=7.0) and stirred until dissolution was complete. 60 mg bilberry extract [37% anthocyanosides] (0.048 mmol expressed as cyanidin-3-O-glucoside) were then added to the flask and stir to fully dissolve, then kept for 4 hours at 37° C. (water bath) with stirring.
After 4 hours, samples were taken and acidified immediately with formic acid to pH=1.0 and analyzed by HPLC for the content of anthocyanosides. Degradation is expressed as decrease in peak area of individual peaks (calculated as % left after 4 hours).
Samples were prepared as outlined above in the HPLC Analytical Method. Test stability samples were immediately acidified (to block degradation) and injected undiluted following the detailed description provided below.

[4] = Example 8: oxidation of GSH to GSSG in buffer pH 7.0 at 37° C. with/without bilberry extract (HPLC); conditions: buffer pH 7.0, 37° C.
Procedure: Sample a) 60 mg GSH (0.192 mmol) were placed into a 100 ml flask, dissolved and filled up to volume with sodium phosphate buffer (5% [w/w], pH=7.0). The sample was kept with stirring at 37° C. Samples were taken immediately after dissolution and after 1, 2, 3 and 4 hours of incubation. The samples were analyzed by HPLC for GSH and GSSG (representing the oxidized form of GSH).
Sample b) 60 mg reduced L-glutathione (0.192 mmol) were added to a 100 ml flask with 60 ml sodium phosphate buffer (5% [w/w], pH=7.0) and stirred until dissolution was complete. 60 mg bilberry extract [37% anthocyanosides] (0.048 mmol expressed as cyanidin-3-O-glucoside) were added, the flask was filled to volume with sodium phosphate buffer (5% [w/w], pH=7.0) and kept at 37° C. (water bath) with stirring. Samples were taken immediately after dissolution and after 1, 2, 3 and 4 hours of incubation. The samples were analyzed by HPLC for GSH and GSSG (representing the oxidized form of GSH).
as §1

[5] = 20 mg reduced L-glutathione, pH 7.0, 37° C., 4 hours
[6] = 30 mg dihydrolipoic acid, pH 7.0, 37° C., 4 hours
[7] = unprotected, pH 7.0, 37° C., 4 hours

**Q.** Which results are given for `OC[C@H]1O[C@@H](Oc2cc3c(O)cc(O)cc3[o+]c2-c2cc(O)c(O)c(O)c2)[C@H](O)[C@@H](O)[C@H]1O` [Dp-3O-Gal, Delphinidin 3-o-galactoside]?
**A.** % left, GSH (4 hours) [1, 5]: 50.6%; Peak Area, GSH (4 hours) [1, 5]: 331.3; % left, DHLA (4 hours) [1, 6]: 60.5%; Peak Area, DHLA (4 hours) [1, 6]: 395.8; Peak Area, Fresh (0 hours) ([1]; bilberry extract 60 mg/100 ml sodium phosphate buffer pH 7.0, fresh sample): 654.4; % left, Blank (4 hours) [1, 7]: 7.8%; Peak Area, Blank (4 hours) [1, 7]: 50.9; Peak Area ([2]; Blank Sample, 1:15 h): 354.36; Peak Area ([2]; Blank Sample, 4:15 h): 226.99; Peak Area ([2]; Blank Sample, 4:30 h): 135.48; Peak Area ([2]; Blank sample, 0:00 h): 699.51; Peak Area ([2]; Blank sample, 0:15 h): 547.09; Peak Area ([2]; Blank sample, 0:30 h): 603.54; Peak Area ([2]; Blank sample, 0:45 h): 451.09; Peak Area ([2]; Blank sample, 1:00 h): 467.23; Peak Area ([2]; Blank sample, 1:45 h): 401.11; Peak Area ([2]; Blank sample, 2:00 h): 356.25; Peak Area ([2]; Blank sample, 2:15 h): 320.33; Peak Area ([2]; Blank sample, 2:30 h): 262.70; Peak Area ([2]; Blank sample, 2:45 h): 264.07; Peak Area ([2]; Blank sample, 3:00 h): 288.65; Peak Area ([2]; Blank sample, 3:15 h): 289.95; Peak Area ([2]; Blank sample, 3:30 h): 237.41; Peak Area ([2]; Blank sample, 4:00 h): 243.90; %-residual anthocyanosides (% left) ([2]; Blank): 19%; Peak Area ([2]; GSH Protected Sample (20 mg), 0:30 h): 674.83; Peak Area ([2]; GSH Protected Sample (20 mg), 1:30 h): 618.45; Peak Area ([2]; GSH Protected Sample (20 mg), 2:30 h): 528.71; Peak Area ([2]; GSH Protected Sample (20 mg), 3:30 h): 553.82; Peak Area ([2]; GSH Protected Sample (20 mg), 4:30 h): 531.62; Peak Area ([2]; GSH Protected Sample (20 mg), 4:45 h): 478.52; Peak Area ([2]; GSH protected sample (20 mg), 0:00 h): 731.12; Peak Area ([2]; GSH protected sample (20 mg), 0:15 h): 739.50; Peak Area ([2]; GSH protected sample (20 mg), 0:45 h): 598.57; Peak Area ([2]; GSH protected sample (20 mg), 1:00 h): 652.53; Peak Area ([2]; GSH protected sample (20 mg), 1:15 h): 648.70; Peak Area ([2]; GSH protected sample (20 mg), 1:45 h): 609.47; Peak Area ([2]; GSH protected sample (20 mg), 2:00 h): 583.66; Peak Area ([2]; GSH protected sample (20 mg), 2:15 h): 592.13; Peak Area ([2]; GSH protected sample (20 mg), 2:45 h): 560.24; Peak Area ([2]; GSH protected sample (20 mg), 3:00 h): 562.10; Peak Area ([2]; GSH protected sample (20 mg), 3:15 h): 562.39; Peak Area ([2]; GSH protected sample (20 mg), 3:45 h): 495.67; Peak Area ([2]; GSH protected sample (20 mg), 4:00 h): 563.95; Peak Area ([2]; GSH protected sample (20 mg), 4:15 h): 540.10; %-residual anthocyanosides (% left) ([2]; GSH-protected): 65%; %-residual anthocyanosides (% left) ([2]; GSH-protected, listed as delphinidin-3-O-Galactose): 65%; Peak Area, Fresh solution ([3]; bilberry extract 60 mg in buffer pH 7.0, fresh sample): 654.4; % left, L-cysteine 20 mg ([3]; pH 7.0, 37° C., 4 hours): 50.6%; Peak Area, L-cysteine 20 mg ([3]; pH 7.0, 37° C., 4 hours): 331.3; % left, Blank [3, 7]: 7.8%; Peak Area, Blank [3, 7]: 50.9

**Q.** Which “Peak Area” value ([4]; GSH + bilberry Sample, 0 hours) does the source give for `N[C@@H](CCC(=O)N[C@@H](CS)C(=O)NCC(=O)O)C(=O)O` [GSH, reduced L-glutathione] here?
**A.** 4760

**Q.** And the “peak area Ratio %” value ([4]; GSH + bilberry Sample, 0 hours)?
**A.** 92.3%

**Q.** What about the “Peak Area” value ([4]; GSH + bilberry Sample, 1 hour) of the same molecule?
**A.** 4071

**Q.** What about the “peak area Ratio %” value ([4]; GSH + bilberry Sample, 1 hour) of the same molecule?
**A.** 79.0%

**Q.** What about the “Peak Area” value ([4]; GSH + bilberry Sample, 2 hours) of the same molecule?
**A.** 3378

**Q.** And the “peak area Ratio %” value ([4]; GSH + bilberry Sample, 2 hours)?
**A.** 65.5%

**Q.** And the “Peak Area” value ([4]; GSH + bilberry Sample, 3 hours)?
**A.** 3045

**Q.** What about the “peak area Ratio %” value ([4]; GSH + bilberry Sample, 3 hours) of the same molecule?
**A.** 59.1%

**Q.** And the “Peak Area” value ([4]; GSH + bilberry Sample, 4 hours)?
**A.** 2461

**Q.** And the “peak area Ratio %” value ([4]; GSH + bilberry Sample, 4 hours)?
**A.** 47.7%

**Q.** What about the “Peak Area” value ([4]; GSH Sample, 0 hours) of the same molecule?
**A.** 4760

**Q.** And the “peak area Ratio %” value ([4]; GSH Sample, 0 hours)?
**A.** 92.3%

**Q.** And the “Peak Area” value ([4]; GSH Sample, 1 hour)?
**A.** 4744

**Q.** What about the “peak area Ratio %” value ([4]; GSH Sample, 1 hour) of the same molecule?
**A.** 92.0%

**Q.** And the “Peak Area” value ([4]; GSH Sample, 2 hours)?
**A.** 4220

**Q.** What about the “peak area Ratio %” value ([4]; GSH Sample, 2 hours) of the same molecule?
**A.** 81.9%

**Q.** What about the “Peak Area” value ([4]; GSH Sample, 3 hours) of the same molecule?
**A.** 4053

**Q.** And the “peak area Ratio %” value ([4]; GSH Sample, 3 hours)?
**A.** 78.6%

**Q.** And the “Peak Area” value ([4]; GSH Sample, 4 hours)?
**A.** 3777

**Q.** What about the “peak area Ratio %” value ([4]; GSH Sample, 4 hours) of the same molecule?
**A.** 73.3%
